# Reference: patent publication US20140221361A1, “C-19 MODIFIED TRITERPENOIDS WITH HIV MATURATION INHIBITORY ACTIVITY” (priority 2013, published 2014)
# System: recombinant NL4-3 virus (Renilla luciferase in nef, Gag P373S)
# Assay: HIV cell culture assay (luciferase reporter, MT-2 cells)
# Assay type: cell-based, HIV-1
# Conditions: MT-2 cells infected for 4-5 days with NLRluc recombinants; luciferase activity; serial dilutions of inhibitor
# Protocol: MT-2 cells and 293T cells were obtained from the NIH AIDS Research and Reference Reagent Program. MT-2 cells were propagated in RPMI 1640 media supplemented with 10% heat inactivated fetal bovine serum, […]. The 293T cells were propagated in DMEM media supplemented with 10% heat inactivated fetal bovine serum (FBS), 100 units/ml penicillin G and 100 µg/ml streptomycin. The proviral DNA clone of NL4-3 was obtained from the NIH AIDS Research and Reference Reagent Program. A recombinant NL4-3 virus, in which a section of the nef gene from NL4-3 was replaced with the Renilla luciferase gene, was used as a reference virus. In addition, residue Gag P373 was converted to P373S. Briefly, the recombinant virus was prepared by transfection of the altered proviral clone of NL4-3. Transfections were performed in 293T cells using LipofectAMINE PLUS from Invitrogen (Carlsbad, Calif.), according to manufacturer's instruction. The virus was titered in MT-2 cells using luciferase enzyme activity as a marker. Luciferase was quantitated using the Dual Luciferase kit from Promega (Madison, Wis.), with modifications to the manufacturer's protocol. The diluted Passive Lysis solution was pre-mixed with the re-suspended Luciferase Assay Reagent and the re-suspended Stop & Glo Substrate (2:1:1 ratio). Fifty (50) μL of the mixture was added to each aspirated well on assay plates and luciferase activity was measured immediately on a Wallac TriLux (Perkin-Elmer). Antiviral activities of inhibitors toward the recombinant virus were quantified by measuring luciferase activity in cells infected for 4-5 days with NLRluc recombinants in the presence serial dilutions of the inhibitor.
row,SMILES,EC50 [nM]
1,"CC(O)(CO)[C@@H]1CC[C@]2(NCCN3CCS(=O)(=O)CC3)CC[C@]3(C)[C@H](CC[C@@H]4[C@@]5(C)CC=C(c6ccc(C(=O)O)cc6)C(C)(C)[C@@H]5CC[C@]43C)[C@@H]12 (single isomer, unassigned) [Example B10]",6.67
2,"CC(C(=O)O)[C@@H]1CC[C@]2(NCCN3CCS(=O)(=O)CC3)CC[C@]3(C)[C@H](CC[C@@H]4[C@@]5(C)CC=C(c6ccc(C(=O)O)c(F)c6)C(C)(C)[C@@H]5CC[C@]43C)[C@@H]12 (stereo partly drawn) [Example A7, 4-((1R,3aS,5aR,5bR,7aR,11aS,11bR,13aR,13bR)-1-(1-carboxyethyl)-3a-((2-(1,1-dioxidothiomorpholino)ethyl)amino)-5a,5b,8,8,11a-pentamethyl-2,3,3a,4,5,5a,5b,6,7,7a,8,11,11a,11b,12,13,13a,13b-octadecahydro-1H-cyclopenta[a]chrysen-9-yl)-2-fluorobenzoic acid]",110
3,"CC(CO)[C@@H]1CC[C@]2(NCCN3CCS(=O)(=O)CC3)CC[C@]3(C)[C@H](CC[C@@H]4[C@@]5(C)CC=C(c6ccc(C(=O)O)c(F)c6)C(C)(C)[C@@H]5CC[C@]43C)[C@@H]12 (single isomer, unassigned) [Example A5]",6.89

# Same assay, conditions: Renilla, NL43, MT-2 cells infected for 4-5 days with NLRluc recombinants; luciferase activity; serial dilutions of inhibitor
row,SMILES,EC50 [nM]
1,"C=C(COCCN1CCOCC1)[C@@H]1CC[C@]2(C(=O)NCCNCC(=O)O)CC[C@]3(C)[C@H](CC[C@@H]4[C@@]5(C)CC=C(c6ccc(C(=O)O)cc6)C(C)(C)[C@@H]5CC[C@]43C)[C@@H]12 [Example 17, 4-((1R,3aS,5aR,5bR,7aR,11aS,11bR,13aR,13bS)-3a-(2-(carboxymethylamino)ethylcarbamoyl)-5a,5b,8,8,11a-pentamethyl-1-(3-(2-morpholinoethoxy)prop-1-en-2-yl)-2,3,3a,4,5,5a,5b,6,7,7a,8,11,11a,11b,12,13,13a,13b-octadecahydro-1H-cyclopenta[a]chrysen-9-yl)benzoic acid]",80
2,"CN(C)[C@@H]1CC[C@]2(NCCN3CCS(=O)(=O)CC3)CC[C@]3(C)[C@H](CC[C@@H]4[C@@]5(C)CC=C(c6ccc(C(=O)O)cc6)C(C)(C)[C@@H]5CC[C@]43C)[C@@H]12 [Example B38, 4-((1R,3aR,5aR,5bR,7aR,11aS,11bR,13aR,13bS)-1-(dimethylamino)-3a-((2-(1,1-dioxidothiomorpholino)ethyl)amino)-5a,5b,8,8,11a-pentamethyl-2,3,3a,4,5,5a,5b,6,7,7a,8,11,11a,11b,12,13,13a,13b-octadecahydro-1H-cyclopenta[a]chrysen-9-yl)benzoic acid]",10
3,"CN(C(=O)C(F)(F)F)[C@@H]1CC[C@]2(NCCN3CCS(=O)(=O)CC3)CC[C@]3(C)[C@H](CC[C@@H]4[C@@]5(C)CC=C(c6ccc(C(=O)O)cc6)C(C)(C)[C@@H]5CC[C@]43C)[C@@H]12 [Example B44, 4-((1R,3aR,5aR,5bR,7aR,11aS,11bR,13aR,13bS)-3a-((2-(1,1-dioxidothiomorpholino)ethyl)amino)-5a,5b,8,8,11a-pentamethyl-1-(2,2,2-trifluoro-N-methylacetamido)-2,3,3a,4,5,5a,5b,6,7,7a,8,11,11a,11b,12,13,13a,13b-octadecahydro-1H-cyclopenta[a]chrysen-9-yl)benzoic acid]",5.92
4,"C=C(COCCN1CCOCC1)[C@@H]1CC[C@]2(C(=O)NCCN(C)C)CC[C@]3(C)[C@H](CC[C@@H]4[C@@]5(C)CC=C(c6ccc(C(=O)O)cc6)C(C)(C)[C@@H]5CC[C@]43C)[C@@H]12 [Example 14, 4-((1R,3aS,5aR,5bR,7aR,11aS,11bR,13aR,13bS)-3a-(2-(dimethylamino)ethylcarbamoyl)-5a,5b,8,8,11a-pentamethyl-1-(3-(2-morpholinoethoxy)prop-1-en-2-yl)-2,3,3a,4,5,5a,5b,6,7,7a,8,11,11a,11b,12,13,13a,13b-octadecahydro-1H-cyclopenta[a]chrysen-9-yl)benzoic acid]",0.72
5,"CC(C)(O)[C@@H]1CC[C@]2(NCCN3CCS(=O)(=O)CC3)CC[C@]3(C)[C@H](CC[C@@H]4[C@@]5(C)CC=C(c6ccc(C(=O)O)cc6)C(C)(C)[C@@H]5CC[C@]43C)[C@@H]12 [Example B3, 4-((1R,3aS,5aR,5bR,7aR,11aS,11bR,13aR,13bS)-3a-((2-(1,1-dioxidothiomorpholino)ethyl)amino)-1-(2-hydroxypropan-2-yl)-5a,5b,8,8,11a-pentamethyl-2,3,3a,4,5,5a,5b,6,7,7a,8,11,11a,11b,12,13,13a,13b-octadecahydro-1H-cyclopenta[a]chrysen-9-yl)benzoic acid]",1.3
6,"CNC(=O)N[C@@H]1CC[C@]2(NCCN3CCS(=O)(=O)CC3)CC[C@]3(C)[C@H](CC[C@@H]4[C@@]5(C)CC=C(c6ccc(C(=O)O)cc6)C(C)(C)[C@@H]5CC[C@]43C)[C@@H]12 [Example B29, 4-((1R,3aR,5aR,5bR,7aR,11aS,11bR,13aR,13bS)-3a-((2-(1,1-dioxidothiomorpholino)ethyl)amino)-5a,5b,8,8,11a-pentamethyl-1-(3-methylureido)-2,3,3a,4,5,5a,5b,6,7,7a,8,11,11a,11b,12,13,13a,13b-octadecahydro-1H-cyclopenta[a]chrysen-9-yl)benzoic acid]",30
7,"C=C(COCCN1CCOCC1)[C@@H]1CC[C@]2(C(=O)O)CC[C@]3(C)[C@H](CC[C@@H]4[C@@]5(C)CC=C(c6ccc(C(=O)O)cc6)C(C)(C)[C@@H]5CC[C@]43C)[C@@H]12 [Example 11, (1R,3aS,5aR,5bR,7aR,11aS,11bR,13aR,13bS)-9-(4-carboxyphenyl)-5a,5b,8,8,11a-pentamethyl-1-(3-(2-morpholinoethoxy)prop-1-en-2-yl)-2,3,3a,4,5,5a,5b,6,7,7a,8,11,11a,11b,12,13,13a,13b-octadecahydro-1H-cyclopenta[a]chrysene-3a-carboxylic acid]",20
8,"CC1([C@@H]2CC[C@]3(NC(=O)CN4CCS(=O)(=O)CC4)CC[C@]4(C)[C@H](CC[C@@H]5[C@@]6(C)CC=C(c7ccc(C(=O)O)cc7)C(C)(C)[C@@H]6CC[C@]54C)[C@@H]23)CC1 [Example B51, 4-((1R,3aS,5aR,5bR,7aR,11aS,11bR,13aR,13bR)-3a-(2-(1,1-dioxidothiomorpholino)acetamido)-5a,5b,8,8,11a-pentamethyl-1-(1-methylcyclopropyl)-2,3,3a,4,5,5a,5b,6,7,7a,8,11,11a,11b,12,13,13a,13b-octadecahydro-1H-cyclopenta[a]chrysen-9-yl)benzoic acid]",1.1
9,"CN[C@]12CC[C@@H](C3(C)CC3)[C@@H]1[C@H]1CC[C@@H]3[C@@]4(C)CC=C(c5ccc(C(=O)O)cc5)C(C)(C)[C@@H]4CC[C@@]3(C)[C@]1(C)CC2 [Example B50, 4-((1R,3aS,5aR,5bR,7aR,11aS,11bR,13aR,13bR)-5a,5b,8,8,11a-pentamethyl-3a-(methylamino)-1-(1-methylcyclopropyl)-2,3,3a,4,5,5a,5b,6,7,7a,8,11,11a,11b,12,13,13a,13b-octadecahydro-1H-cyclopenta[a]chrysen-9-yl)benzoic acid]",1.36
10,"CN(C)CCNC(=O)[C@]12CC[C@@H](NC(=O)OC(C)(C)C)[C@@H]1[C@H]1CC[C@@H]3[C@@]4(C)CC=C(C5=CCC(C(=O)O)CC5)C(C)(C)[C@@H]4CC[C@@]3(C)[C@]1(C)CC2 (stereo partly drawn) [Example A9, 4-((1R,3aR,5aR,5bR,7aR,11aS,11bR,13aR,13bR)-1-((tert-butoxycarbonyl)amino)-3a-((2-(dimethylamino)ethyl)carbamoyl)-5a,5b,8,8,11a-pentamethyl-2,3,3a,4,5,5a,5b,6,7,7a,8,11,11a,11b,12,13,13a,13b-octadecahydro-1H-cyclopenta[a]chrysen-9-yl)cyclohex-3-enecarboxylic acid]",1.15
11,"COCC(C)[C@@H]1CC[C@]2(NCCN3CCS(=O)(=O)CC3)CC[C@]3(C)[C@H](CC[C@@H]4[C@@]5(C)CC=C(c6ccc(C(=O)O)cc6)C(C)(C)[C@@H]5CC[C@]43C)[C@@H]12 (stereo partly drawn) [Example B7, 4-((1R,3aS,5aR,5bR,7aR,11aS,11bR,13aR,13bR)-3a-((2-(1,1-dioxidothiomorpholino)ethyl)amino)-1-(1-methoxypropan-2-yl)-5a,5b,8,8,11a-pentamethyl-2,3,3a,4,5,5a,5b,6,7,7a,8,11,11a,11b,12,13,13a,13b-octadecahydro-1H-cyclopenta[a]chrysen-9-yl)benzoic acid]",0.945
12,"CC(O)[C@@H]1CC[C@]2(NCCN3CCS(=O)(=O)CC3)CC[C@]3(C)[C@H](CC[C@@H]4[C@@]5(C)CC=C(c6ccc(C(=O)O)cc6)C(C)(C)[C@@H]5CC[C@]43C)[C@@H]12 (single isomer, unassigned) [Example B11]",2.18
